Data on 18 molecules can be found in paper PMC11356821, “A New Class of Benzo[b]thiophene-chalcones as Cholinesterase Inhibitors: Synthesis, Biological Evaluation, Molecular Docking and ADME Studies” (Molecules, 2024).

Series [1] addresses T1, equine serum BChE (Equus caballus, UniProt P81908).
T1 construct: from tissue; host or cells: equine serum
Put plainly: biochemical. The conditions noted are these: for BChE (I %): inhibition at 50 µM; for inhibition at 50 µM: read-out: BChE (I %). The method, then:
(§1) AChE (EC EC 3.1.1.7) from electrophorus electricus and equine serum BChE (EC 3.1.1.8) were used for the inhibitory assays. ChE inhibitory activity was evaluated using Ellman’s method, as previously described, with slight modifications. The reaction mixture was prepared by dissolving acetylthiocholine iodide (1.5 mM), 5,5’-dithiobis-2-nitrobenzoate (DTNB) (1.5 mM) and the inhibitor (at the desired concentrations) or DMSO alone (control) in 0.1 M phosphate buffer (pH 8.0) to a final volume of 200 µL. The enzyme was added to the reaction mixture and the absorbance was monitored at 405 nm as soon as it was added. This test is based on the AChE enzyme hydrolyzing acetylthiocholine to produce acetate and thiocholine. Thiocholine reacts with DTNB to produce a yellow-colored anion. For the BChE assay, we followed the same procedures as above but used BChE as the enzyme and S-butyrylthiocholine chloride (BTCI) as the substrate.

Series [2] in a line: Solubility in DMSO. In kind it is physicochemical.
Series [3] addresses electrophorus electricus AChE (Electrophorus electricus, UniProt O42275). The series is described as follows: AChE inhibition, Ellman's method. The conditions noted are these: for AChE (I %): inhibition at 50 µM; for inhibition at 50 µM: read-out: AChE (I %). In kind it is biochemical. The method, then:
The potential effects of the synthesized compounds 4a–4i and 5a–5i on AChE and BChE were performed using electrophorus electricus AChE and equine serum BChE due to their low cost and high degree of similarity with their respective human enzymes. For the first screenings, they are excellent and widely used in vitro models.
as §1, with “substrate. […] Galantamine is considered as a positive control under the same experimental conditions.” for “substrate.”
(In general: Ellman's reagent forms a yellow product with free thiols.)

The test system of series [4] is SH-SY5Y cells. Put plainly: Cell viability, MTT assay. In kind it is cell-based. The conditions noted are these: 24 h, at IC50 concentrations. The protocol:
Therefore, their impact on the viability of SH-SY5Y cells (neuroblastoma cell line) has been studied. For cell viability experiments, the compounds were tested at different concentrations (0, 30, 50, 100 and 200 μM) for 24 h and analyzed using the MTT test.
Human neuroblastoma cell line SH-SY5Y was obtained from ICLC Cell bank (cat. # HTL95013). The cells were cultured in high-glucose DMEM supplemented with 10% fetal bovine serum, 100 units/mL of penicillin and 100 µg/mL of streptomycin (all from Gibco, Life sciences; Thermo Fisher Scientific, Waltham, MA, USA) and maintained at 37 °C in a humidified atmosphere of 5% CO2 and 95% air. Cell viability was detected by the colorimetric 3-(4,5 dimethylthiazol-2-yl)-2,5-diphenyltetrazolium bromide (MTT) assay, as previously described, with minor modifications. Briefly, 1.5 × 10^4 cells/well were seeded in 96-well plates and incubated for 24 h with different concentrations (30–200 μM) of compounds. After incubation, 100 μL of the MTT reagent (0.5 mg/mL in DMEM) was added, and the cells were incubated for 3 h at 37 °C. The resulting violet formazan precipitate was dissolved in DMSO and quantified by spectrophotometry at 570 nm using a microplate reader (VANTAstar_BMG LABTECH GmbH, Offenburg, Germany). Viability data were reported in the percentage of control for each compound.

In general, IC50 refers to the concentration that gives 50% inhibition.

Chain of electrophorus electricus AChE (O42275 24-633): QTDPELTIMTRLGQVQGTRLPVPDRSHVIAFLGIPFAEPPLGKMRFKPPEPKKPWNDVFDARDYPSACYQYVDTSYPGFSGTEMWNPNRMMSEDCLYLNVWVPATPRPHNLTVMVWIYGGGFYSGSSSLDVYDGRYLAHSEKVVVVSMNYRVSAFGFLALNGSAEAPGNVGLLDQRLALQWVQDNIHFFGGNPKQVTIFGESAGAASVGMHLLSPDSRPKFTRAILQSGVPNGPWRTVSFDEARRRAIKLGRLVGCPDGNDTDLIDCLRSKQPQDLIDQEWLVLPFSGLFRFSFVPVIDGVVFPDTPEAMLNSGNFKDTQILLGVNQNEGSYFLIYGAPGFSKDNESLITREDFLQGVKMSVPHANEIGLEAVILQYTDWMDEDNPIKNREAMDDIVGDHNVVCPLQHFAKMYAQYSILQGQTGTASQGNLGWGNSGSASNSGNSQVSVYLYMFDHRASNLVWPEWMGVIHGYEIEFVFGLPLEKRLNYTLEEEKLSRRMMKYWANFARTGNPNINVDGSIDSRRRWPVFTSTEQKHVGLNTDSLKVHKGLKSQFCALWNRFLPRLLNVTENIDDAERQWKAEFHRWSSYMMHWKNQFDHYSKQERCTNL
T1 sequence (P81908 whole entry): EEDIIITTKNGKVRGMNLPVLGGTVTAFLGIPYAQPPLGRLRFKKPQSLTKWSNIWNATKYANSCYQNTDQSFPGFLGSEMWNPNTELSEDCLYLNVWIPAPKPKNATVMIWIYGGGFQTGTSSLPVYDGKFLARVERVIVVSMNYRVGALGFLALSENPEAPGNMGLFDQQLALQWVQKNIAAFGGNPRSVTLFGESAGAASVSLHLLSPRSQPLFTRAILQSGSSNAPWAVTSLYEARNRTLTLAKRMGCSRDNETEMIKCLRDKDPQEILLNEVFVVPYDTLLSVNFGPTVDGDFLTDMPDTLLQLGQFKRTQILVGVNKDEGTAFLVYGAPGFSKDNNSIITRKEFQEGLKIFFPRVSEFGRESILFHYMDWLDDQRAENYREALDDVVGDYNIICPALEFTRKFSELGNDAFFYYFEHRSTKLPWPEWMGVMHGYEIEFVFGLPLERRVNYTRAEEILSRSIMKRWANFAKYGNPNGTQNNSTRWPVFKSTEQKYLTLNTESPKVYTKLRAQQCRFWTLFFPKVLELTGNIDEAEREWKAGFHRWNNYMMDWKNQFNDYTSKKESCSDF

Turning to `c1ccc(-c2cc3ccccc3s2)cc1` [Compound 4a, 2-Phenylbenzothiophene], the “BChE (I %)” value in series [1] is “Ins”. For the same molecule, the “solubility in dimethyl sulfoxide (DMSO)” value in series [2] is recorded as “insoluble”. Further, the “AChE (I %)” value in series [3] is listed as “Ins”.

`O=[N+]([O-])c1ccc(-c2cc3ccccc3s2)cc1` [Compound 4b, 2-(4-Nitrophenyl)benzothiophene]: the inhibition at 50 µM in series [1] came to 2.29%; in series [3] it was 8.2%.

As for `COc1ccc(-c2cc3ccccc3s2)cc1` [Compound 4c, 2-(4-Methoxyphenyl)benzothiophene], the inhibition at 50 µM was 1.2% in series [1] and 9.6% in series [3].

`N#Cc1ccc(-c2cc3ccccc3s2)cc1` [Compound 4d, 4-(Benzothiophene-2-yl)benzonitrile]: the “BChE (I %)” value in series [1] is “Ins”. In addition, in series [2], the “solubility in dimethyl sulfoxide (DMSO)” value was “insoluble”. Moreover, the “AChE (I %)” value in series [3] is listed as “Ins”.

On to `FC(F)(F)c1ccc(-c2cc3ccccc3s2)cc1` [Compound 4e, 2-(4-Trifluoromethylphenyl)benzothiophene], for which the “BChE (I %)” value in series [1] is on record as “Ins”. The “solubility in dimethyl sulfoxide (DMSO)” value in series [2] is listed as “insoluble”. The “AChE (I %)” value in series [3] was “Ins”.

As to `Clc1ccc(-c2cc3ccccc3s2)cc1` [Compound 4f, 2-(4-Chlorophenyl)benzothiophene], the “BChE (I %)” value in series [1] is listed as “Ins”. Also, the “solubility in dimethyl sulfoxide (DMSO)” value in series [2] was “insoluble”. Besides, the “AChE (I %)” value in series [3] was “Ins”.

In the case of `Cc1ccc(-c2cc3ccccc3s2)cc1` [Compound 4g, 2-(4-Methylphenyl)benzothiophene], the “BChE (I %)” value in series [1] is given as “Ins”. Besides, the “solubility in dimethyl sulfoxide (DMSO)” value in series [2] is given as “insoluble”. In addition, the “AChE (I %)” value in series [3] is listed as “Ins”.

Turning to `Nc1ccc(-c2cc3ccccc3s2)cc1` [Compound 4h, 2-(4-aminophenyl)benzothiophene], the inhibition at 50 µM in series [1] worked out at 10.2%.

Take `Oc1ccc(-c2cc3ccccc3s2)cc1` [Compound 4i, 2-(4-hydroxyphenyl)benzothiophene]: the inhibition at 50 µM in series [1] was determined as 13.6%; in series [3] it was 8.19%.

Take `O=C(c1ccccc1)c1c(-c2ccccc2)sc2ccccc12` [Compound 5a, 3-Benzoyl-2-phenylbenzothiophene]: in series [1], the IC50 came out at 83.4 ± 1.2 µM and the inhibition at 50 µM is 35.7%. The inhibition at 50 µM in series [3] was found to be 20.8%. In addition, in series [4], the “cytotoxic effects on cell viability” value is reported as “no cytotoxic effects”.

For the molecule `O=C(c1ccc([N+](=O)[O-])cc1)c1c(-c2ccc([N+](=O)[O-])cc2)sc2ccccc12` [Compound 5b, 3-(4-Nitrobenzoyl)-2-(4-nitrophenyl)benzothiophene], the inhibition at 50 µM in series [1] worked out at 16.8%; in series [3], 11%.

Take `COc1ccc(C(=O)c2c(-c3ccc(OC)cc3)sc3ccccc23)cc1` [Compound 5c, 3-(4-Methoxybenzoyl)-2-(4-methoxyphenyl)benzothiophene]: the figures for the inhibition at 50 µM in series [1] and in series [3] were 11.9% and 3.5%, respectively.

With `N#Cc1ccc(C(=O)c2c(-c3ccc(C#N)cc3)sc3ccccc23)cc1` [Compound 5d, 4-Cianophenyl-[2-(4-cianophenyl)-benzothiophen-3-yl]-methanone], the inhibition at 50 µM in series [1] was 14%; in series [3] it was 4.5%.

Take `O=C(c1ccc(C(F)(F)F)cc1)c1c(-c2ccc(C(F)(F)F)cc2)sc2ccccc12` [Compound 5e, 3-(4-Trifluoromethylbenzoyl)-2-(4-trifluoromethylphenil)benzothiophene]: the results for the inhibition at 50 µM in series [1] and in series [3] were 3.1% and 10%, respectively.

Take `O=C(c1ccc(Cl)cc1)c1c(-c2ccc(Cl)cc2)sc2ccccc12` [Compound 5f, 3-(4-Chlorobenzoyl)-2-(4-chlorophenyl)benzothiophene]: the inhibition at 50 µM in series [1] was 23.1%; in series [3] it was 39.9%. In series [3], this molecule had an IC50 of 62.1 ± 1.2 µM. Besides, the “cytotoxic effects on cell viability” value in series [4] was “no cytotoxic effects”.

Turning to `Cc1ccc(C(=O)c2c(-c3ccc(C)cc3)sc3ccccc23)cc1` [Compound 5g, 3-(4-Methylbenzoyl)-2-(4-methylphenyl)benzothiophene], the inhibition at 50 µM in series [1] turned out to be 13.1%; in series [3], 28.3%.

As to `Nc1ccc(C(=O)c2c(-c3ccc(N)cc3)sc3ccccc23)cc1` [Compound 5h, 3-(4-aminobenzoyl)-2-(4-aminophenyl)benzothiophene], in series [1], the IC50 came to 24.3 ± 0.5 µM and the inhibition at 50 µM is 58.3%. Further, the “cytotoxic effects on cell viability” value in series [4] is “no cytotoxic effects”.

Turning to `O=C(c1ccc(O)cc1)c1c(-c2ccc(O)cc2)sc2ccccc12` [Compound 5i, 3-(4-hydroxybenzoyl)-2-(4-hydroxyphenyl)benzothiophene], in series [1], the IC50 was found to be 59.6 ± 11.6 µM and the inhibition at 50 µM was 42.2%. Further, in series [3], the inhibition at 50 µM was 19.3%. Also, in series [4], the “cytotoxic effects on cell viability” value is listed as “no cytotoxic effects”.
